{"source": "paper PMC5704987", "about": "(Fetal and pediatric pathology, 2017)", "molecules": {"B1": {"name": "recombinant human CYP3A5 (Homo sapiens) (protein)", "chain": "MDLIPNLAVETWLLLAVSLVLLYLYGTRTHGLFKRLGIPGPTPLPLLGNVLSYRQGLWKFDTECYKKYGKMWGTYEGQLPVLAITDPDVIRTVLVKECYSVFTNRRSLGPVGFMKSAISLAEDEEWKRIRSLLSPTFTSGKLKEMFPIIAQYGDVLVRNLRREAEKGKPVTLKDIFGAYSMDVITGTSFGVNIDSLNNPQDPFVESTKKFLKFGFLDPLFLSIILFPFLTPVFEALNVSLFPKDTINFLSKSVNRMKKSRLNDKQKHRLDFLQLMIDSQNSKETESHKALSDLELAAQSIIFIFAGYETTSSVLSFTLYELATHPDVQQKLQKEIDAVLPNKAPPTYDAVVQMEYLDMVVNETLRLFPVAIRLERTCKKDVEINGVFIPKGSMVVIPTYALHHDPKYWTEPEEFRPERFSKKKDSIDPYIYTPFGTGPRNCIGMRFALMNMKLALIRVLQNFSFKPCKETQIPLKLDTQGLLQPEKPIVLKVDSRDGTLSGE"}, "B2": {"name": "recombinant human CYP3A7 (Homo sapiens) (protein)", "chain": "MDLIPNLAVETWLLLAVSLILLYLYGTRTHGLFKKLGIPGPTPLPFLGNALSFRKGYWTFDMECYKKYRKVWGIYDCQQPMLAITDPDMIKTVLVKECYSVFTNRRPFGPVGFMKNAISIAEDEEWKRIRSLLSPTFTSGKLKEMVPIIAQYGDVLVRNLRREAETGKPVTLKHVFGAYSMDVITSTSFGVSIDSLNNPQDPFVENTKKLLRFNPLDPFVLSIKVFPFLTPILEALNITVFPRKVISFLTKSVKQIKEGRLKETQKHRVDFLQLMIDSQNSKDSETHKALSDLELMAQSIIFIFAGYETTSSVLSFIIYELATHPDVQQKVQKEIDTVLPNKAPPTYDTVLQLEYLDMVVNETLRLFPVAMRLERVCKKDVEINGMFIPKGVVVMIPSYVLHHDPKYWTEPEKFLPERFSKKNKDNIDPYIYTPFGSGPRNCIGMRFALVNMKLALVRVLQNFSFKPCKETQIPLKLRFGGLLLTEKPIVLKAESRDETVSGA"}}, "key": {"[1]": {"tested_on": "oxytocin-induced uterine contractility", "conditions": "murine model, preliminary work by the group; ref [10]; cited from earlier work"}, "[2]": {"target": "T1, recombinant CYP19A1 (aromatase) (Homo sapiens, UniProt P11511)", "T1 sequence (P11511 1-503)": "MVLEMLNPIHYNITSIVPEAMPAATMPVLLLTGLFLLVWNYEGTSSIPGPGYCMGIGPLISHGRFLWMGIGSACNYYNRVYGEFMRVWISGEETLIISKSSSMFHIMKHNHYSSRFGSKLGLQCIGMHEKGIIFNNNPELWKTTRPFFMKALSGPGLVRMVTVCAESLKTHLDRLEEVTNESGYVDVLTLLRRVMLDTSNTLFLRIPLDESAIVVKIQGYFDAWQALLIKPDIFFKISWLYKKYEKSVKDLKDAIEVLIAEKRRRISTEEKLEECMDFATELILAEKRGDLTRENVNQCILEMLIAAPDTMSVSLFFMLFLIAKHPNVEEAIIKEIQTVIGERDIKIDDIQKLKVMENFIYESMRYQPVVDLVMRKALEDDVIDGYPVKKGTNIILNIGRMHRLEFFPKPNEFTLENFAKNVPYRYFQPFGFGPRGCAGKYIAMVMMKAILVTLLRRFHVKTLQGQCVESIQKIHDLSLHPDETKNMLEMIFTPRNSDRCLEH", "assay": "Progesterone incubation with recombinant CYP19A1", "assay_type": "in vitro ADME", "conditions": "progesterone 100 μM, CYP19A1 25 pmol, data not shown"}, "recombinant CYP2A6": {"target": "T2, recombinant CYP2A6 (Homo sapiens, UniProt P11509)", "T2 sequence (P11509 1-494)": "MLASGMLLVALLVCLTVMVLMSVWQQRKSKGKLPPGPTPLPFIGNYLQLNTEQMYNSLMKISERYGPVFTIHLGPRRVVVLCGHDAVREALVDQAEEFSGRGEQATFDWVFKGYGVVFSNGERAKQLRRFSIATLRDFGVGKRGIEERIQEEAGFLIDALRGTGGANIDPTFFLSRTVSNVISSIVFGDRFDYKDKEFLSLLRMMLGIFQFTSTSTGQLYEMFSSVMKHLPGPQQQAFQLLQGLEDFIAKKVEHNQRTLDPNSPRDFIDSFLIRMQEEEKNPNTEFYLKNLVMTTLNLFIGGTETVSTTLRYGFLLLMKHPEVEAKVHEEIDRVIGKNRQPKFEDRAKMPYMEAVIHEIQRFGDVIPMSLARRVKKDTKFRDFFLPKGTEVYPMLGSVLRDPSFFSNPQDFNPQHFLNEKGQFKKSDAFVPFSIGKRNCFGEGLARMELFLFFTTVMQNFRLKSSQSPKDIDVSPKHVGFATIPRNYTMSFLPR", "assay": "Progesterone incubation with recombinant CYP2A6", "assay_type": "in vitro ADME", "conditions": "recombinant CYP2A6, data not shown"}, "[3]": {"assay": "In vitro in vivo extrapolation to maternal liver", "set-up": "species or system human"}, "[4]": {"assay": "In vitro in vivo extrapolation to fetal liver", "set-up": "species or system human"}, "[5]": {"conditions": "human, microsomes, pH 7.4"}, "recombinant human CYP3A4": {"target": "recombinant human CYP3A4 (Homo sapiens, UniProt P08684)", "sequence (P08684 2-503 limits assumed)": "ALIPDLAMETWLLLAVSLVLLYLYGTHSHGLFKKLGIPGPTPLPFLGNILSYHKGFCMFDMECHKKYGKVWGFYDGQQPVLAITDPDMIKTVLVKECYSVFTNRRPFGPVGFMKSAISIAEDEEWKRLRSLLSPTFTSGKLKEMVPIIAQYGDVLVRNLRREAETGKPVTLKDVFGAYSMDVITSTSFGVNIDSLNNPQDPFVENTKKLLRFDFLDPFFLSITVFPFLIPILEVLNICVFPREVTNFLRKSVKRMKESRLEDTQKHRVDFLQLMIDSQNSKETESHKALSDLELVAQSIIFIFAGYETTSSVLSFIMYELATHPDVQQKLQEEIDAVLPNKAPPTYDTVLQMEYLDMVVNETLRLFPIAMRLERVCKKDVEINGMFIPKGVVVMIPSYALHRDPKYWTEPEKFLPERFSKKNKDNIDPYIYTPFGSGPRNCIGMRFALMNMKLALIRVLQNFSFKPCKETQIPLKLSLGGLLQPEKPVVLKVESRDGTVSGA", "conditions": "pH 7.4"}, "recombinant human CYP3A5": {"target": "recombinant human CYP3A5 (Homo sapiens, UniProt P20815)", "conditions": "recombinant enzyme, pH 7.4"}, "CYP17A1": {"tested_on": "CYP17A1", "conditions": "microsomes from CYP17A1-transfected COS1 cells; ref [11]; cited from earlier work"}, "in vitro": {"assay": "in vitro", "conditions": "human"}, "[6]": {"assay": "Progesterone metabolism in pooled human liver microsomes"}, "not read": {"substrate": "CC(=O)[C@H]1CC[C@H]2[C@@H]3CCC4=CC(=O)CC[C@]4(C)[C@H]3CC[C@]12C", "assay": "not read", "conditions": "other: rCYP3A5 20 pmol, progesterone 20–250 μM; mean ± SE (95% CI); pH 7.4"}, "[7]": {"substrate": "CC(=O)[C@H]1CC[C@H]2[C@@H]3CCC4=CC(=O)CC[C@]4(C)[C@H]3CC[C@]12C"}, "[8]": {"conditions": "Maternal, CYP3A5*0*0 (nonexpresser)"}, "[9]": {"conditions": "Fetal, CYP3A5*0*0 (nonexpresser)"}, "[10]": {"conditions": "HLMs 0.5 mg/mL, progesterone 20–250 μM, 30 min, mean ± SE"}}, "note": "“And” between values parts separate entries of the source, which are not always exact repeats. Identical values can stand only once. Like-named read-outs stand apart in the source and are kept apart here.", "data": [{"molecule": "CC(=O)[C@H]1[C@H](O)C[C@H]2[C@@H]3CCC4=CC(=O)CC[C@]4(C)[C@H]3CC[C@@]21C", "note": "[16α-OHP, 16α-hydroxyprogesterone]", "values": [{"measurement": "effect on oxytocin-induced uterine contractility frequency", "setting": "[1]", "value": "decreased"}]}, {"molecule": "CC(=O)[C@H]1CC[C@H]2[C@@H]3CCC4=CC(=O)CC[C@]4(C)[C@H]3CC[C@]12C", "note": "[progesterone, Progesterone]", "values": [{"measurement": "formation of 6β-OHP and 16α-OHP metabolites", "setting": "[2]", "value": "minimal formation"}, {"measurement": "metabolite formation", "setting": "recombinant CYP2A6", "value": "did not produce detectable metabolites"}, {"measurement": "6β-OHP CLf", "setting": "[3]; [8]", "value": 624, "unit": "L/h"}, {"measurement": "16α-OHP CLf", "setting": "[3]; [8]", "value": 346, "unit": "L/h"}, {"measurement": "CLint, H", "setting": "[3]; [8]", "value": 970, "unit": "L/h"}, {"measurement": "6β-OHP formation relative to 16α-OHP", "setting": "[3]; maternal, CYP3A5 expressers", "value": 2, "unit": "fold"}, {"measurement": "reduction in clearance of progesterone in CYP3A5 nonexpressers", "setting": "[3]; maternal, vs CYP3A5 expressers", "value": 5, "unit": "%"}, {"measurement": "6β-OHP formed, fetuses expressing active CYP3A5 relative to nonexpressers", "setting": "[4]", "value": "~ 3 times"}, {"measurement": "clearance from fetal liver relative to maternal liver", "setting": "[4]", "value": "less than 0.1%"}, {"measurement": "6β-OHP CLf", "setting": "[4]; [9]", "value": 0.19, "unit": "L/h"}, {"measurement": "16α-OHP CLf", "setting": "[4]; [9]", "value": 0.13, "unit": "L/h"}, {"measurement": "CLint, H", "setting": "[4]; [9]", "value": 0.32, "unit": "L/h"}, {"measurement": "intrinsic clearance (CLint), 6β-OHP formation", "setting": "[5]", "value": 59.2, "unit": "μL/min/mg protein"}, {"measurement": "6β-OHP Vmax", "setting": "recombinant human CYP3A4", "value": "22.3 ± 1.1 (20.1–24.6) pmol/min/pmol protein"}, {"measurement": "6β-OHP CLint", "setting": "recombinant human CYP3A4; recombinant enzyme", "value": 2.3, "unit": "μL/min/pmol protein"}, {"measurement": "enzymatic activity (CLint) for 6β-OHP, CYP3A4 relative to CYP3A5", "setting": "recombinant human CYP3A4; recombinant enzyme", "value": 25, "unit": "fold"}, {"measurement": "activity (CLint) for 6β-OHP, CYP3A5 relative to CYP3A7", "setting": "recombinant human CYP3A5", "value": 23, "unit": "fold"}, {"measurement": "Vmax for 16α-OHP formation", "setting": "CYP17A1", "value": 0.12, "unit": "nmol/h/mg protein"}, {"measurement": "Vmax for 17α-OHP formation", "setting": "CYP17A1", "value": 0.46, "unit": "nmol/h/mg protein"}, {"measurement": "Km at 30 min", "setting": "in vitro; pH 7.4, Km for formation of 6β-OHP", "value": "27.7 ± 8.1", "unit": "µM"}, {"measurement": "Km at 30 min", "setting": "in vitro; pH 7.4, Km for formation of 16α-OHP", "value": "29.8 ± 5.7", "unit": "µM"}, {"measurement": "Vmax for formation of 6β-OHP", "setting": "[6]; [10]", "value": "1640±111", "unit": "pmol/min/mg protein"}, {"measurement": "Vmax for formation of 16α-OHP", "setting": "[6]; [10]", "value": "192.1 ± 8.9", "unit": "pmol/min/mg protein"}]}, {"molecule": "CC(=O)[C@H]1CC[C@H]2[C@@H]3C[C@@H](O)C4=CC(=O)CC[C@]4(C)[C@H]3CC[C@]12C", "note": "[6β-OHP, 6β-hydroxyprogesterone]", "values": [{"measurement": "effect on oxytocin-induced uterine contractility frequency", "setting": "[1]", "value": "increased"}, {"measurement": "further metabolism on incubation with HLMs", "setting": "[6]; metabolite incubated with HLMs, data not shown", "value": "did not yield additional metabolism products"}]}, {"molecule": "B1", "values": [{"measurement": "Km", "setting": "not read", "value": "72.5 ± 24.3 (19.5–125) μM and 60.2 ± 11.9 (40.2–89.7) μM"}, {"measurement": "kcat", "setting": "not read", "value": 0.00367, "unit": "s⁻¹"}, {"measurement": "kcat/Km", "setting": "not read", "value": 50, "unit": "M⁻¹ s⁻¹"}]}, {"molecule": "B2", "values": [{"measurement": "Km", "setting": "[7]", "value": "43.8 ± 31.0 (6.4–199) μM and 44.4 ± 23.5 (15.1–116) μM"}, {"measurement": "kcat", "setting": "[7]", "value": "0.00167 s⁻¹ and 0.00333 s⁻¹"}, {"measurement": "kcat/Km", "setting": "[7]", "value": "50 M⁻¹ s⁻¹ and 66.7 M⁻¹ s⁻¹"}]}]}
